Test results taken from patent US20240246967A1, “AXL COMPOUNDS” (ARCUS BIOSCIENCES, INC., priority 2021, published 2024).

Tests used:
human MER = target: T1, human MER (Homo sapiens, UniProt Q12866); test: HTRF KinEASE-TK biochemical potency assay, MER; conditions: 1 nM MER, 700 μM ATP, 800 nM TK Substrate-biotin
T1 construct: purchased Invitrogen
T1 sequence (Q12866 21-999): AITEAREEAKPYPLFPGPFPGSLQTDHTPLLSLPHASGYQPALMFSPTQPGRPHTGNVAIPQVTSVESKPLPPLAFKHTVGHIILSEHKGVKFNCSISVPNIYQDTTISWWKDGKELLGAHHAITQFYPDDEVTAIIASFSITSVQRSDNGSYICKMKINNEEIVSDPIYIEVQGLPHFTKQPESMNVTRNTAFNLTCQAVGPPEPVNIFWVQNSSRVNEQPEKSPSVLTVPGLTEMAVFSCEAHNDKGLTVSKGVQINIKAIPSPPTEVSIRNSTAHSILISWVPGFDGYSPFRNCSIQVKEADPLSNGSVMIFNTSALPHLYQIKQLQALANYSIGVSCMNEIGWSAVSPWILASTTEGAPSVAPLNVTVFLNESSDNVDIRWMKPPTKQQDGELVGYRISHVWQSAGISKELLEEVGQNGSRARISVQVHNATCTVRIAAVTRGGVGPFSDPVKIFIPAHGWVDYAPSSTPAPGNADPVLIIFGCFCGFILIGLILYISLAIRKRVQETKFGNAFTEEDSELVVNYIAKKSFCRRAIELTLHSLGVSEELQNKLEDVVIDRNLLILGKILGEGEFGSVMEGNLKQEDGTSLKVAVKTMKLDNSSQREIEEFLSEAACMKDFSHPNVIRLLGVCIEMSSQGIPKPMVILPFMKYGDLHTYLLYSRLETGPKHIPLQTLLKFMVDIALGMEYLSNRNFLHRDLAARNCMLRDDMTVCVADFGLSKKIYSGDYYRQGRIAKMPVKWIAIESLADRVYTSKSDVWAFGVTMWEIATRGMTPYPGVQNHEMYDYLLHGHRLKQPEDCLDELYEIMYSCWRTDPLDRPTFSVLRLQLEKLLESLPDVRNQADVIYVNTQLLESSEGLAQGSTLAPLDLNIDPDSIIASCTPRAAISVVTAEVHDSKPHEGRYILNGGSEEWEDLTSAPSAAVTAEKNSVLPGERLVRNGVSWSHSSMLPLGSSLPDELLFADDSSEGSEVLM
Outline: (§1)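 Enzyme (final 5 nM AXL; 1 nM TYRO3 or MER) plus compound, 1 h RT → add biotinylated TK substrate (800 nM final) and ATP (700 μM final) → 2 h RT → stop into HTRF detection mix → read 665/620 nm. Activity normalised to DMSO and pre-stopped blanks.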

Axl = target: T2, Axl (Homo sapiens, UniProt P30530); test: HTRF KinEASE-TK biochemical potency assay, AXL; set-up: purchased Invitrogen; conditions: 5 nM AXL, 700 μM ATP, 800 nM TK Substrate-biotin
T2 sequence (P30530 26-894): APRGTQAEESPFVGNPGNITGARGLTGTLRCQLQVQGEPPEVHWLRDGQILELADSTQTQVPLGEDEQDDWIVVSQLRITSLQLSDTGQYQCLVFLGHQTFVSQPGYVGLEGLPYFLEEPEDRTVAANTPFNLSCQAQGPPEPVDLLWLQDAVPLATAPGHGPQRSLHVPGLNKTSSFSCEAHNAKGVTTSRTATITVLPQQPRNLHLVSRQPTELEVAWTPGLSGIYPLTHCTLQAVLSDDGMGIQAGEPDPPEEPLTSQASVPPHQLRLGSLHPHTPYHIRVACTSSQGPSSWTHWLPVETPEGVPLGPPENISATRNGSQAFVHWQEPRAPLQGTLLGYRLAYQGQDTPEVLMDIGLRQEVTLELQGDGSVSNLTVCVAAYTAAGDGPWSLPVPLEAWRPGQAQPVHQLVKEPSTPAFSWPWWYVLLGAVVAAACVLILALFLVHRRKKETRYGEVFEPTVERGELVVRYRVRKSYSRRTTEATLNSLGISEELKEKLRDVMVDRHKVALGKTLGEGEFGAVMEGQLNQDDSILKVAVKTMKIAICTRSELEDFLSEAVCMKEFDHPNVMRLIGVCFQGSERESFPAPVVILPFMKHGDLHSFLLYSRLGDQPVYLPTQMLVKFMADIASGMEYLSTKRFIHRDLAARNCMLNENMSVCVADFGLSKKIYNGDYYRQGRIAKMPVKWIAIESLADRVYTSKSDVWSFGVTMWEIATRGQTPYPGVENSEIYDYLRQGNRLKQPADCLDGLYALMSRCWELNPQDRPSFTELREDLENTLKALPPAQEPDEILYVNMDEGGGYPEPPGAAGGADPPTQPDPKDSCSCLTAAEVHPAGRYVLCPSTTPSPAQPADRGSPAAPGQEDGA
Outline: as §1

| Structure (SMILES) | IC50 (human MER) | IC50 (Axl) |
| --- | --- | --- |
| CC(C)(O)c1ccc(-c2n[nH]c3ncc(-c4ccc5c(n4)CCC(N4CCCC4)CC5)cc23)cc1Cl (stereo not shown) [Example 60, 2-(2-Chloro-4-{5-[7-(pyrrolidin-1-yl)-5H,6H,7H,8H,9H-cyclohepta[b]pyridin-2-yl]-1H-pyrazolo[3,4-b]pyridin-3-yl}phenyl)propan-2-ol] | 100 to 1000 nM | 100 to 1000 nM |
| CC(C)(O)c1ccc(-c2n[nH]c3ncc(-c4ccc5c(c4)CC4CCC(C5)C4N4CCCC4)cc23)cc1Cl (stereo not shown) [Example 61, 2-(2-Chloro-4-{5-[13-(pyrrolidin-1-yl)tricyclo[8.2.1.0^3,8]trideca-3,5,7-trien-5-yl]-1H-pyrazolo[3,4-b]pyridin-3-yl}phenyl)propan-2-ol] | > 1000 nM | > 1000 nM |
| C[C@@H]1CCCN1C1CCc2ccc(-c3cnc4[nH]nc(-c5ccc(C6(O)CCC6)c(Cl)c5)c4c3)cc2CC1 (stereo partly drawn) [Example 62, 1-[2-Chloro-4-(5-{7-[(2R)-2-methylpyrrolidin-1-yl]-6,7,8,9-tetrahydro-5H-benzo[7]annulen-2-yl}-1H-pyrazolo[3,4-b]pyridin-3-yl)phenyl]cyclobutan-1-ol] | 100 to 1000 nM | < 100 nM |
| C[C@@H]1CCCN1C1CCc2ccc(-c3cnc4[nH]nc(-c5ccc(S(N)(=O)=O)c(Cl)c5)c4c3)cc2CC1 (stereo partly drawn) [Example 94, 2-Chloro-4-(5-(7-((R)-2-methylpyrrolidin-1-yl)-6,7,8,9-tetrahydro-5H-benzo[7]annulen-2-yl)-1H-pyrazolo[3,4-b]pyridin-3-yl)benzenesulfonamide] | 100 to 1000 nM | < 100 nM |
| C[C@@H]1CCCN1C1(C)CCc2ccc(-c3cnc4[nH]nc(-c5ccc(S(N)(=O)=O)cc5)c4c3)cc2CC1 (stereo partly drawn) [Example 95, 4-(5-(7-Methyl-7-((R)-2-methylpyrrolidin-1-yl)-6,7,8,9-tetrahydro-5H-benzo[7]annulen-2-yl)-1H-pyrazolo[3,4-b]pyridin-3-yl)benzenesulfonamide] | 100 to 1000 nM | < 100 nM |
| C[C@@H]1CCCN1C1CCc2ccc(-c3cnc4[nH]nc(-c5ccc(C(C)(C)O)cn5)c4c3)cc2CC1 (stereo partly drawn) [Example 97, 2-[6-(5-{7-[(2R)-2-Methylpyrrolidin-1-yl]-6,7,8,9-tetrahydro-5H-benzo[7]annulen-2-yl}-1H-pyrazolo[3,4-b]pyridin-3-yl)pyridin-3-yl]propan-2-ol] | > 1000 nM | < 100 nM |
| CCS(=N)(=O)c1ccc(-c2n[nH]c3ncc(-c4ccc5c(c4)CCC(C)(N4CCC[C@H]4C)CC5)cc23)cc1 (stereo partly drawn) [Example 100, Ethyl(imino)[4-(5-{7-methyl-7-[(2R)-2-methylpyrrolidin-1-yl]-6,7,8,9-tetrahydro-5H-benzo[7]annulen-2-yl}-1H-pyrazolo[3,4-b]pyridin-3-yl)phenyl]-λ^6-sulfanone] | 100 to 1000 nM | < 100 nM |
| C[C@@H]1CCCN1C1(C)CCc2ccc(-c3cnc4[nH]cc(-c5ccc(S(=O)(=O)C6CC6)cc5)c4c3)cc2CC1 (stereo partly drawn) [Example 105, (2R)-1-(2-{3-[4-(Cyclopropanesulfonyl)phenyl]-1H-pyrrolo[2,3-b]pyridin-5-yl}-7-methyl-6,7,8,9-tetrahydro-5H-benzo[7]annulen-7-yl)-2-methylpyrrolidine] | > 1000 nM | < 100 nM |

The next lines start with the values.

| IC50 (human MER) | IC50 (Axl) | Structure (SMILES) |
| --- | --- | --- |
| 100 to 1000 nM | < 100 nM | CC(C)(O)c1ccc(-c2n[nH]c3ncc(-c4cc5c(cn4)CCC(N4CCCC4)CC5)cc23)cc1Cl (stereo not shown) [Example 59, 2-(2-Chloro-4-{5-[7-(pyrrolidin-1-yl)-5H,6H,7H,8H,9H-cyclohepta[c]pyridin-3-yl]-1H-pyrazolo[3,4-b]pyridin-3-yl}phenyl)propan-2-ol] |
| > 1000 nM | < 100 nM | CC(C)(O)c1ccc(-c2n[nH]c3ncc(-c4ccc5c(c4)CCC4(CCCN4)CC5)cc23)cc1Cl (stereo not shown) [Example 96, 2-[2-Chloro-4-(5-{5,6,8,9-tetrahydrospiro[benzo[7]annulene-7,2′-pyrrolidin]-3-yl}-1H-pyrazolo[3,4-b]pyridin-3-yl)phenyl]propan-2-ol] |
| 100 to 1000 nM | < 100 nM | C[C@@H]1CCCN1C1(C)CCc2ccc(-c3cnc4[nH]nc(-c5cnc(C(C)(C)O)c(Cl)c5)c4c3)cc2CC1 (stereo partly drawn) [Example 98, 2-[3-Chloro-5-(5-{7-methyl-7-[(2R)-2-methylpyrrolidin-1-yl]-6,7,8,9-tetrahydro-5H-benzo[7]annulen-2-yl}-1H-pyrazolo[3,4-b]pyridin-3-yl)pyridin-2-yl]propan-2-ol] |
| > 1000 nM | < 100 nM | C[C@@H]1CCCN1C1(C)CCc2ccc(-c3cnc4[nH]nc(-c5ccc(C(=O)N[C@@H]6CCOC6)cc5)c4c3)cc2CC1 (stereo partly drawn) [Example 99, 4-(5-{7-Methyl-7-[(2R)-2-methylpyrrolidin-1-yl]-6,7,8,9-tetrahydro-5H-benzo[7]annulen-2-yl}-1H-pyrazolo[3,4-b]pyridin-3-yl)-N-[(3R)-oxolan-3-yl]benzamide] |
| > 1000 nM | < 100 nM | C[C@@H]1CCCN1[C@@H]1CCc2cc(-c3cnc4[nH]nc(-c5ccc(S(=O)(=O)C6CC6)cc5)c4c3)cnc2CC1 [Example 101, (2R)-1-(3-{3-[4-(Cyclopropanesulfonyl)phenyl]-1H-pyrazolo[3,4-b]pyridin-5-yl}-5H,6H,7H,8H,9H-cyclohepta[b]pyridin-7-yl)-2-methylpyrrolidine] |
| > 1000 nM | 100 to 1000 nM | C[C@@H]1CCCN1[C@H]1CCc2cc(-c3cnc4[nH]nc(-c5ccc(S(=O)(=O)C6CC6)cc5)c4c3)cnc2CC1 [Example 102, (2R)-1-[(7S)-3-{3-[4-(Cyclopropanesulfonyl)phenyl]-1H-pyrazolo[3,4-b]pyridin-5-yl}-5H,6H,7H,8H,9H-cyclohepta[b]pyridin-7-yl]-2-methylpyrrolidine] |
| > 1000 nM | < 100 nM | COC1CCN(S(=O)(=O)c2ccc(-c3n[nH]c4ncc(-c5ccc6c(c5)CCC(C)(N5CCC[C@H]5C)CC6)cc34)cc2)CC1 (stereo partly drawn) [Example 103, 3-(4-((4-Methoxypiperidin-1-yl)sulfonyl)phenyl)-5-(7-methyl-7-((R)-2-methylpyrrolidin-1-yl)-6,7,8,9-tetrahydro-5H-benzo[7]annulen-2-yl)-1H-pyrazolo[3,4-b]pyridine] |
| 100 to 1000 nM | < 100 nM | C[C@@H]1CCCN1C1(C)CCc2ccc(-c3cnc4[nH]nc(-c5ccc(S(=O)(=O)N6CCC6)cc5)c4c3)cc2CC1 (stereo partly drawn) [Example 104, (2R)-1-(2-{3-[4-(Azetidine-1-sulfonyl)phenyl]-1H-pyrazolo[3,4-b]pyridin-5-yl}-7-methyl-6,7,8,9-tetrahydro-5H-benzo[7]annulen-7-yl)-2-methylpyrrolidine] |
| > 1000 nM | < 100 nM | C[C@@H]1CCCN1C1(C)CCc2ccc(-c3cnc4[nH]nc(-c5ccc(N6CCOCC6)cc5)c4c3)cc2CC1 (stereo partly drawn) [Example 107, 4-[4-(5-{7-Methyl-7-[(2R)-2-methylpyrrolidin-1-yl]-6,7,8,9-tetrahydro-5H-benzo[7]annulen-2-yl}-1H-pyrazolo[3,4-b]pyridin-3-yl)phenyl]morpholine] |
